Laboratory results published in PubChem BioAssay AID2060502 (Molecular Pharmacology Branch, DTP, NCI, 2025).
Several values for one entry are separate records, joined by “and”; a condition that tells them apart may be missing. Equal values may be shown once.

Test system: 885724-159-R-J1-PDC complex spheroid viability
Assay: Anticancer human tumor 885724-159-R-J1-PDC patient-derived pancreatic adenocarcinoma cell line growth inhibition [GQUAD]
Details: for viability, T/C: stronger effect = lower value
Source text: DNA G-quadruplex Stabilizer Agents in Combinations in Complex Spheroids
A high-throughput screen of multi-cell type tumor spheroids was designed to identify active combinations of DNA G-quadruplex stabilizer agents and targeted small molecules. Complex spheroids include a stromal component modeled by human endothelial cells (HUVEC) and fibroblasts modeled by human mesenchymal stem cells (MSCs). The concentration ranges selected for each drug and investigational agent were based upon clinically achievable concentrations if the clinical Cmax of the agent was known.
Compounds. The drugs and investigational agents: pidnarulex (CX-5461; NSC782164), APTO-253 (NSC789042), BRACO-19 (NSC847499), peposertib (NSC802822), ceralasertib (NSC780249), elimusertib (NSC800525), camonsertib (NSC841442), AZD-1390 (NSC803789), olaparib (NSC753686), talazoparib (NSC767125), ART-558 (NSC835418), sotorasib (NSC818433), MRTX-1133 (NSC836407), SN-38 (NSC673596), topotecan (NSC609699), etoposide (NSC141540), doxorubicin (NSC123127), gemcitabine (NSC613327), 5-fluorouracil (NSC19893), paclitaxel (NSC125973), vemurafenib (NSC761431), panobinostat (NSC761190), R-306465 (JNJ-16241199; NSC773264), adavosertib (NSC754352), TP-3654 (NSC805149), carboplatin (NSC241240), KSQ-4279 (NSC840948), and staurosporine (NSC755774) were obtained from the National Cancer Institute (NCI) Developmental Therapeutics Program Chemical Repository (34). The FDA-approved anticancer drug set is available from the NCI Developmental Therapeutics Program. […] The stock solutions were prepared in dimethyl sulfoxide (DMSO, Sigma-Aldrich, St. Louis, MO, cat. D2650) at 800-fold the tested concentration and stored at -70 degrees C prior to their use. All drugs and investigational agents were tested over a range starting from a high concentration at or near the clinical Cmax and decreasing in half-log increments. If the clinical Cmax for an agent had not been determined, the highest concentration tested was 10 microM.
2.3 Cell Culture. All cells were maintained in an incubator at 37 degrees C and 5% CO2 with 95% humidity. The PDC lines were cultured according to standard operating procedures established by the NCI PDMR. All PDCs were thawed and cultured in Matrigel-coated flasks prepared with a working solution of 1X Ham's F-12 nutrient mix, without supplementation (Invitrogen, cat. 11765054), 100 U/mL penicillin-streptomycin (Invitrogen, cat. 15140122), and 2.5% Matrigel (Corning Inc., cat. 354248) for the first three passages. The 857933-349-R-J2-PDC line was cultured in 6C/Colon 1B media, which includes advanced DMEM/F-12 (Thermo Fisher Scientific, cat. 12634028), 10 mM HEPES (Thermo Fisher Scientific, cat. 15630080), 1X GlutaMAX supplement (Thermo Fisher Scientific, cat. 35050061), 0.1 mg/mL primocin (InvivoGen, cat. ant-pm-2), 10% defined fetal bovine serum, heat inactivated (HyClone Laboratories Inc., cat. SH30070.03HI), 50% L-WRN conditioned media (ATCC, cat. CRL-3276), 1.25 mM N-Acetyl-L-cysteine (Sigma-Aldrich, cat. A9165), 10 mM nicotinamide (Sigma-Aldrich, cat. N0636), 1X B-27 supplement (Thermo Fisher Scientific, cat. 17504044), 1X N-2 supplement (Thermo Fisher Scientific, cat. 17502048), 10 microM Y-27632 dihydrochloride (Tocris Bioscience, cat. 1254), and 50 ng/mL human EGF recombinant protein (Thermo Fisher Scientific, cat. PHG0311). The 485176-168-R4-J1-PDC line was cultured in Panc media, which includes all 6C/Colon 1B media components plus 100 ng/mL human FGF-10 (Thermo Fisher Scientific, cat. 100-26), 500 nM SB-431542 (Selleckchem, cat. S1067), and gastrin (Tocris, cat. 3006).
[…]

[1] = curve of first compound, second compound 0.0316 µM
[2] = curve of first compound, second compound 0.1 µM
[3] = curve of first compound, second compound 0.316 µM
[4] = curve of first compound, second compound 1 µM
[5] = curve of first compound, second compound 3.16 µM
[6] = curve of first compound, second compound 10 µM
[7] = second compound 0.0316 µM, first compound 0.0316 µM
[8] = second compound 0.0316 µM, first compound 0.1 µM
[9] = second compound 0.0316 µM, first compound 0.316 µM
[10] = second compound 0.0316 µM, first compound 1 µM
[11] = second compound 0.0316 µM, first compound 3.16 µM
[12] = second compound 0.0316 µM, first compound 10 µM
[13] = second compound 0.1 µM, first compound 0.0316 µM
[14] = second compound 0.1 µM, first compound 0.1 µM
[15] = second compound 0.1 µM, first compound 0.316 µM
[16] = second compound 0.1 µM, first compound 1 µM
[17] = second compound 0.1 µM, first compound 3.16 µM
[18] = second compound 0.1 µM, first compound 10 µM
[19] = second compound 0.316 µM, first compound 0.0316 µM
[20] = second compound 0.316 µM, first compound 0.1 µM
[21] = second compound 0.316 µM, first compound 0.316 µM
[22] = second compound 0.316 µM, first compound 1 µM
[23] = second compound 0.316 µM, first compound 3.16 µM
[24] = second compound 0.316 µM, first compound 10 µM
[25] = second compound 1 µM, first compound 0.0316 µM
[26] = second compound 1 µM, first compound 0.1 µM
[27] = second compound 1 µM, first compound 0.316 µM
[28] = second compound 1 µM, first compound 1 µM
[29] = second compound 1 µM, first compound 3.16 µM
[30] = second compound 1 µM, first compound 10 µM
[31] = second compound 3.16 µM, first compound 0.0316 µM
[32] = second compound 3.16 µM, first compound 0.1 µM
[33] = second compound 3.16 µM, first compound 0.316 µM
[34] = second compound 3.16 µM, first compound 1 µM
[35] = second compound 3.16 µM, first compound 3.16 µM
[36] = second compound 3.16 µM, first compound 10 µM
[37] = second compound 10 µM, first compound 0.0316 µM
[38] = second compound 10 µM, first compound 0.1 µM
[39] = second compound 10 µM, first compound 0.316 µM
[40] = second compound 10 µM, first compound 1 µM
[41] = second compound 10 µM, first compound 3.16 µM
[42] = second compound 10 µM, first compound 10 µM
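Also: spheroids exposed to agents for seven days before readout.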
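For viability, T/C in this document: percent of vehicle control viability where 100% = DMSO wells.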

With `CC(=O)O[C@H]1C(=O)[C@@]2(C)[C@H]([C@H](OC(=O)c3ccccc3)[C@]3(O)C[C@H](OC(=O)[C@H](O)[C@@H](NC(=O)c4ccccc4)c4ccccc4)C(C)=C1C3(C)C)[C@]1(OC(C)=O)CO[C@@H]1C[C@@H]2O` + CN(C)c1ccc(Nc2c3ccc(NC(=O)CCN4CCCC4)cc3nc3cc(NC(=O)CCN4CCCC4)ccc23)cc1 the IC50 [1] was > 10 µM, the IC50 [2] was > 10 µM and the IC50 [3] was > 10 µM. For the same compound, the IC50 [4] was > 10 µM, the IC50 [5] was > 10 µM and the IC50 [6] was > 10 µM. The viability, T/C [7] was 92.9%, the viability, T/C [8] was 82.8% and the viability, T/C [9] was 81.8%. It also gave a viability, T/C [10] of 85.3%, a viability, T/C [11] of 88% and a viability, T/C [12] of 98.7%. The viability, T/C [13] was 94%, the viability, T/C [14] was 92.7% and the viability, T/C [15] was 82.3%. For the same compound, the viability, T/C [16] was 89.8%, the viability, T/C [17] was 83.9% and the viability, T/C [18] was 96.8%. For the same compound, the viability, T/C [19] was 81.7%, the viability, T/C [20] was 82.4% and the viability, T/C [21] was 83.8%. It also gave a viability, T/C [22] of 76.7%, a viability, T/C [23] of 85.5% and a viability, T/C [24] of 81.1%. The viability, T/C [25] was 77.4%, the viability, T/C [26] was 64.3% and the viability, T/C [27] was 78.6%. The viability, T/C [28] was 68%, the viability, T/C [29] was 84.4% and the viability, T/C [30] was 82.5%. It also gave a viability, T/C [31] of 77.9%, a viability, T/C [32] of 56.1% and a viability, T/C [33] of 63.6%. It also gave a viability, T/C [34] of 66.2%, a viability, T/C [35] of 66.6% and a viability, T/C [36] of 72.1%. The viability, T/C [37] was 66.4%, the viability, T/C [38] was 69.6% and the viability, T/C [39] was 65.4%. The viability, T/C [40] was 67.4%, the viability, T/C [41] was 69.6% and the viability, T/C [42] was 67.7%.

With `COc1ncnc(C2CC2)c1-c1ncc2cnn(Cc3ccc(-c4nc(C(F)(F)F)cn4C(C)C)cc3)c2n1` the viability, T/C (compound 0.0316 µM) was 86.6% and 90.5% and 93%, the viability, T/C (compound 0.1 µM) was 95.1% and 90.7% and 98.2% and the viability, T/C (compound 0.316 µM) was 99% and 97.4% and 93.2%. For the same compound, the viability, T/C (compound 1 µM) was 99.8% and 90.6% and 97.7%, the viability, T/C (compound 3.16 µM) was 90.2% and 96% and 92.5% and the viability, T/C (compound 10 µM) was 115% and 101% and 113%. The IC50 (curve of compound) was > 10 µM.

`O=c1[nH]cc(F)c(=O)[nH]1` + Cc1cnc(CNC(=O)c2c(=O)c3ccc(N4CCCN(C)CC4)nc3n3c2sc2ccccc23)cn1 was tested, and the IC50 [1] was > 10 µM, the IC50 [2] was > 10 µM and the IC50 [3] was > 10 µM. The IC50 [4] was > 10 µM, the IC50 [5] was > 10 µM and the IC50 [6] was > 10 µM. For the same compound, the viability, T/C [7] was 108%, the viability, T/C [8] was 107% and the viability, T/C [9] was 116%. It also gave a viability, T/C [10] of 118%, a viability, T/C [11] of 87.1% and a viability, T/C [12] of 88.8%. It also gave a viability, T/C [13] of 103%, a viability, T/C [14] of 107% and a viability, T/C [15] of 112%. The viability, T/C [16] was 116%, the viability, T/C [17] was 92.1% and the viability, T/C [18] was 102%. For the same compound, the viability, T/C [19] was 99.2%, the viability, T/C [20] was 109% and the viability, T/C [21] was 91.5%. For the same compound, the viability, T/C [22] was 103%, the viability, T/C [23] was 96.4% and the viability, T/C [24] was 97.1%. For the same compound, the viability, T/C [25] was 84.2%, the viability, T/C [26] was 84.1% and the viability, T/C [27] was 100%. For the same compound, the viability, T/C [28] was 87.1%, the viability, T/C [29] was 86.2% and the viability, T/C [30] was 83%. The viability, T/C [31] was 78.2%, the viability, T/C [32] was 89.7% and the viability, T/C [33] was 90.5%. The viability, T/C [34] was 78.1%, the viability, T/C [35] was 83.8% and the viability, T/C [36] was 84.4%. It also gave a viability, T/C [37] of 81.7%, a viability, T/C [38] of 77% and a viability, T/C [39] of 74.8%. It also gave a viability, T/C [40] of 84%, a viability, T/C [41] of 77.8% and a viability, T/C [42] of 72.2%.

For `Cc1[nH]c2ccccc2c1CCNCc1ccc(/C=C/C(=O)NO)cc1`, the viability, T/C (compound 0.000999 µM) was 92.3% and 106% and 93.5%, the viability, T/C (compound 0.00316 µM) was 91.4% and 98.9% and 103% and the viability, T/C (compound 0.00999 µM) was 95.6% and 86.5% and 91.7%. The viability, T/C (compound 0.0316 µM) was 108% and 83.9% and 98.7%, the viability, T/C (compound 0.0999 µM) was 95.6% and 86.5% and 74.5% and the viability, T/C (compound 0.316 µM) was 47.5% and 47.9% and 42.7%. For the same compound, the IC50 (curve of compound) was 0.298 µM and > 0.316 µM and 0.242 µM.
